Legend:
SET2 cells = assay: SET2 viability with prodrug plus recombinant enzyme or enzyme-containing supernatant; type: cell-based; conditions: SET2, with Beta-lactamase supernatant
Experimental: Recombinant CPG2 protein was initially synthesized, purified (FIGS. 15A and 15B), and incubated with increasing concentrations of prodrug in a glutamate release assay (FIG. 14C). Mass spectrometry was used to determine that the glutamate moiety was released from all of the glutamate prodrugs.
Cell viability was measured by CellTitre-Glo® luminescence assay.
To determine to respective enzyme output of the Beta-lactamase constructs relative to the previous CPG2 constructs, a quantitative sandwich ELISA was used to determine the concentration (ng/mL) of purified recombinant CPG2, and a quantitative nitrocefin assay was used to determine the concentration (ng/mL) of purified recombinant Beta-lactamase (FIG. 22A). Cell viability was measured by CellTitre-Glo® luminescence in the presence of prodrug (glut-AMS or ceph-AMS) and varying concentrations of purified recombinant CPG2 or Beta-lactamase (FIG. 22B).

[1] = test system: HEK293T cells expressing CPG2; assay: Prodrug treatment of HEK293T cells expressing CPG2 variants; type: cell-based, human
Experimental: Expression of CPG2 without a signal peptide (CPG2nosigp) was employed as a control. HEK293t cells stably transfected with CPG2 variants were exposed to P-AMS (1 μM) for 48 hours and analyzed by bright field microscopy (FIG. 9A). Cells were exposed to varying concentrations of P-AMS and cell viability was analyzed at 48 hr post treatment (FIG. 9B).

Human Jurkat T cells = assay: Prodrug activation by purified recombinant CPG2, Jurkat viability; type: cell-based; conditions: Jurkat viability at 48 hours
Experimental: FIG. 4 provides exemplary data showing activation of P-AMS (see FIG. 2) by recombinant CPG2 expressed and purified from E. coli. (A) Human Jurkat T cells were incubated with or without P-AMS in the presence of increasing concentration of purified CPG2. […] (B) Recombinant CPG2 was exposed to various concentrations of glutamated AMS prodrug. Following incubation at 37° C. (0.5, 1, 2, and 4 hr.), the reaction was combined with Amplex® Red (converts free glutamate to a fluorescent species) and fluorescent emission was analyzed using a fluorescence multiwell plate scanner.
The CPG2-pET151 vector was transformed into BL21 star E. coli cells and induced with IPTG. Bacteria were homogenized in a French Press and purified by affinity chromatography over Ni++ beads using standard protocols. Imidazole was exchanged via PBS dialysis and protein was purified via desalting spin columns. The expressed and purified CPG2 was assayed to confirm that the active enzyme was a potent converter of glutamated prodrugs. […] Pro-AMS was activated by recombinant CPG2 in vitro. Human Jurkat T cells were incubated with or without P-AMS in the presence of increasing concentration of purified CPG2. […] (FIG. 4B) Similar enzyme kinetics will be used to assess the characteristics of the enzyme activity for each of the prodrugs similarly. […]

Jurkat T cells = conditions: increasing prodrug with CPG2 supernatant, 48 hours

SMILES | cell viability (SET2 cells) | activation of prodrug ([1]; HEK293T cells expressing CPG intracellularly) | cell death ([1]; stably transfected HEK293T with cell-secreted or transmembrane CPG2, 48 hr) | activation by recombinant CPG2 in vitro (Human Jurkat T cells) | cell viability (Jurkat T cells)
Nc1ncnc2c1ncn2[C@@H]1O[C@H](COS(=O)(=O)NCC2=C(C(=O)O)N3C(=O)[C@@H](NC(=O)Cc4cccs4)[C@H]3SC2)[C@@H](O)[C@H]1O [ceph-AMS] | significant decrease in cell viability | – | – | – | –
NS(=O)(=O)OC[C@H]1O[C@@H](n2cnc3c(NC(=O)N[C@@H](CCC(=O)O)C(=O)O)ncnc32)[C@H](O)[C@@H]1O [P-AMS, ((9-((2R,3R,4S,5R)-3,4-dihydroxy-5-((sulfamoyloxy)methyl)tetrahydrofuran-2-yl)-9H-purin-6-yl)carbamoyl)-L-glutamic acid] | – | not activated | significant cell death | activated | significant decrease in cell viability

Source: patent US12496310B2, “Compositions and methods for adoptive cell therapy” (MEMORIAL SLOAN KETTERING CANCER CENTER, priority 2017, dated 2025)
